# Experimental data from ChEMBL document CHEMBL2046307, “Plumbagin induces apoptosis in Her2-overexpressing breast cancer cells through the mitochondrial-mediated pathway” (J Nat Prod, 2012).
# Active and inactive are the calls of the source. No cut-off for these calls is given here.
# Columns and labels:
# [1] = tested on: BT-474; assay: Induction of apoptosis in Her2-overexpressing human BT474 cells assessed as increase in BaK protein level after 24 hrs by Western blot analysis; assay type: functional, cell-based
# [2] = tested on: BT-474; assay: Induction of apoptosis in Her2-overexpressing human BT474 cells assessed as increase in Bax protein level after 24 hrs by Western blot analysis; assay type: functional, cell-based
# [3] = tested on: SK-BR-3; assay: Induction of apoptosis in Her2-overexpressing human SKBR3 cells assessed as increase in caspase activity after 6 hrs by fluorescence analysis relative to control; assay type: functional
# [4] = tested on: BT-474; assay: Induction of apoptosis in Her2-overexpressing human BT474 cells assessed as increase in caspase activity at 10 uM after 6 hrs by fluorescence analysis relative to control; assay type: functional
# [5] = tested on: SK-BR-3; assay: Induction of apoptosis in Her2-overexpressing human SKBR3 cells assessed as increase in caspase activity after 6 hrs by fluorescence analysis; assay type: functional, cell-based
# [6] = tested on: BT-474; assay: Induction of apoptosis in Her2-overexpressing human BT474 cells assessed as increase in caspase activity after 6 hrs by fluorescence analysis; assay type: functional, cell-based
# [7] = tested on: BT-474; assay: Induction of apoptosis in Her2-overexpressing human BT474 cells assessed as accumulation at subG1 phase by propidium iodide staining-based flow cytometric analysis; assay type: functional, cell-based
# [8] = tested on: SK-BR-3; assay: Induction of cell cycle arrest in Her2-overexpressing human SKBR3 cells assessed as increase in DNA accumulation at subG1 phase at 10 uM after 24 hrs by propidium iodide staining-based flow cytometric analysis (reference value: 11%); assay type: functional
# [9] = tested on: SK-BR-3; assay: Induction of cell cycle arrest in Her2-overexpressing human SKBR3 cells assessed as increase in DNA accumulation at subG1 phase at 5 uM after 24 hrs by propidium iodide staining-based flow cytometric analysis (reference value: 11%); assay type: functional
# [10] = tested on: SK-BR-3; assay: Induction of cell cycle arrest in Her2-overexpressing human SKBR3 cells assessed as increase in DNA accumulation at subG1 phase at 2.5 uM after 24 hrs by propidium iodide staining-based flow cytometric analysis (reference value: 11%); assay type: functional
# [11] = tested on: SK-BR-3; assay: Induction of cell cycle arrest in Her2-overexpressing human SKBR3 cells assessed as increase in DNA accumulation at subG1 phase after 24 hrs by propidium iodide staining-based flow cytometric analysis; assay type: functional
# [12] = tested on: SK-BR-3; assay: Anticlonogenic activity in Her2-overexpressing human SKBR3 cells assessed as inhibition of colony formation at 1 uM after 6 hrs followed by washout measured after 16 days by crystal violet staining; assay type: functional
# [13] = tested on: BT-474; assay: Anticlonogenic activity in Her2-overexpressing human BT474 cells assessed as inhibition of colony formation at 1 uM after 6 hrs followed by washout measured after 16 days by crystal violet staining; assay type: functional
# [14] = tested on: BT-474; assay: Cytotoxicity against Her2-overexpressing human BT474 cells after 72 hrs by MTT assay; assay type: functional, cell-based; conditions: BT-474, 72 h
# [15] = tested on: SK-BR-3; assay: Cytotoxicity against Her2-overexpressing human SKBR3 cells after 72 hrs by MTT assay; assay type: functional, cell-based; conditions: SK-BR-3, 72 h
# [16] = tested on: BT-474; assay: Cytotoxicity against Her2-overexpressing human BT474 cells after 24 hrs by MTT assay; assay type: functional, cell-based; conditions: BT-474, 24 h
# [17] = tested on: SK-BR-3; assay: Cytotoxicity against Her2-overexpressing human SKBR3 cells after 24 hrs by MTT assay; assay type: functional, cell-based; conditions: SK-BR-3, 24 h
# [18] = tested on: MDA-MB-231; assay: Antitumor activity against human MDA-MB-231 cells xenografted in nude mouse assessed as decrease in tumor volume; assay type: functional; design: scale not given: the % may be the effect or the level left
# [19] = tested on: BT-474; assay: Ratio of IC50 for Her2-overexpressing human BT474 cells after 24 hrs to IC50 for Her2-overexpressing human BT474 cells after 72 hrs; assay type: functional
# [20] = tested on: SK-BR-3; assay: Cytotoxicity against Her2-overexpressing human SKBR3 cells after 24 to 72 hrs by MTT assay; assay type: functional, cell-based
# [21] = tested on: BT-474; assay: Cytotoxicity against Her2-overexpressing human BT474 cells after 24 to 72 hrs by MTT assay; assay type: functional, cell-based
# [22] = tested on: BT-474; assay: Anticlonogenic activity in Her2-overexpressing human BT474 cells assessed as inhibition of colony formation after 6 hrs followed by washout measured after 16 days by crystal violet staining; assay type: functional, cell-based
# [23] = tested on: SK-BR-3; assay: Anticlonogenic activity in Her2-overexpressing human SKBR3 cells assessed as inhibition of colony formation after 6 hrs followed by washout measured after 16 days by crystal violet staining; assay type: functional, cell-based
# [24] = tested on: SK-BR-3; assay: Induction of apoptosis in Her2-overexpressing human SKBR3 cells assessed as decrease in Bcl-2 protein level after 24 hrs by Western blot analysis; assay type: functional, cell-based
# [25] = tested on: BT-474; assay: Induction of apoptosis in Her2-overexpressing human BT474 cells assessed as decrease in Bcl-2 protein level after 24 hrs by Western blot analysis; assay type: functional, cell-based
# [26] = tested on: SK-BR-3; assay: Induction of apoptosis in Her2-overexpressing human SKBR3 cells assessed as increase in BaK protein level after 24 hrs by Western blot analysis; assay type: functional, cell-based
# [27] = tested on: SK-BR-3; assay: Induction of apoptosis in Her2-overexpressing human SKBR3 cells assessed as increase in Bax protein level after 24 hrs by Western blot analysis; assay type: functional, cell-based
smiles,measurement,setting,value
CC1=CC(=O)c2c(O)cccc2C1=O [PLUMBAGIN],Activity,[1],Dose-dependent effect
same,Activity,[2],Dose-dependent effect
same,fold change (FC),[3],4
same,fold change (FC),[4],5
same,Activity,[5],Dose-dependent effect
same,Activity,[6],Dose-dependent effect
same,Activity,[7],inactive
same,Activity,[8],73%
same,Activity,[9],43%
same,Activity,[10],20%
same,Activity,[11],Dose-dependent effect
same,inhibition at 1 µM,[12],50%
same,inhibition at 1 µM,[13],40%
same,IC50,[14],800 nM
same,IC50,[15],1800 nM
same,IC50,[16],1800 nM
same,IC50,[17],3.2 µM
same,Activity,[18],70%
same,Ratio IC50,[19],2
same,Activity,[20],Dose-dependent effect
same,Activity,[21],Dose-dependent effect
same,Activity,[22],Dose-dependent effect
same,Activity,[23],Dose-dependent effect
same,Activity,[24],Active
same,Activity,[25],Active
same,Activity,[26],Dose-dependent effect
same,Activity,[27],Dose-dependent effect
